Where two headings read alike, the source gives them in different places.
Tests used:
[1] = tested on: NHEK (normal human epidermal keratinocytes); test: Minimal growth assay: metabolic activity by resazurin assay of NHEK cultivated in minimal growth medium (MGM) plus test compound; assay type: cell-based; details: for metabolic activity/cell number compared to the MGM control: highest value of the dose-dependent increase; for dose-depending increase of metabolic activity/cell number compared to the MGM control: 48 h and 72 h, increasing concentrations in MGM; for activity at 100 µM: 100 µm test compound
Experimental: Metabolic activity was measured by a resazurin assay. In this assay, non-fluorescent resazurin is reduced to fluorescent resorufin in viable cells only. The resulting signal is proportional to the number of cells present and, thus, is an indirect measure of cell number. The assay was carried out by diluting a resazurin (Sigma) stock solution (0,1 mg/ml in PBS) in the respective culture medium at a ratio of 1:11. The resazurin conversion to the fluorescent resorufin by metabolically active cells was recorded at 560Ex/590Em nm using a Synergy™ H4 plate reader (BioTek Instruments). Mean values of relative fluorescence/luminescence units (RFU/RLU) and standard deviation of replicates were analysed by Gene5 software. […] Statistical significance was assessed by comparing mean (+/-SD) values with Student's t-test for independent groups. NHEK were seeded at 30.000 cells/cm^2 into 48-well flat bottom tissue culture plates and cultured in normal keratinocyte growth medium ("GM") at 37°C and 5% CO2. After 12 to 15 h (typically over night) the media was exchanged to MGM with different concentrations of test compound. Controls receive MGM without compounds. Test compounds 1 to 4 (1: […] Ca^2+-pantothenate; 4: folic acid) were prepared according to Table 1 to yield respective stock solutions. The stock solutions were further diluted in minimal growth media (MGM) to obtain different test compound concentrations. […] The negative control wells contained media only plus the respective solvent. Table 1. Test compound and control solutions […] The test compounds were dissolved in DMSO, diluted into MGM and added to the cells. 4 to 6 replicates/concentration were tested. […] Metabolic activity after 48 h (see FIG. 4) and 72 h after incubation (see FIG. 5) was determined by the resazurin assay, and proliferation after 48 h and 72 h after incubation was measured using the CyQuant® Direct Cell Proliferation Assay kit (data not shown).

[2] = tested on: NHEK (normal human epidermal keratinocytes); test: Minimal growth assay: proliferation by DNA amount (CyQuant Direct Cell Proliferation Assay kit) of NHEK in MGM plus test compounds; assay type: cell-based; details: NHEK in MGM plus single compound or combination; MGM control set 100%
Experimental: Alternatively, cell number was directly assessed by measuring the amount of DNA using the CyQuant® Direct Cell Proliferation Assay kit (Invitrogen). In brief, the two CyQuant® kit solutions were mixed and added to the respective culture medium as described by the supplier. The fluorescence of the DNA intercalating CyQuant® Dye, representing the amount of cells, was recorded at 480Ex/535Em nm using a Synergy™ H4 plate reader (BioTek Instruments). Increase of the number of cells is used as indirect indicator of cell proliferation.
Mean values of relative fluorescence/luminescence units (RFU/RLU) and standard deviation of replicates were analysed by Gene5 software. For a better estimation of test compound's potential metabolic activity and proliferation measured in MGM were set as 100%. Statistical significance was assessed by comparing mean (+/-SD) values with Student's t-test for independent groups.
For measurements of metabolic activity and proliferation, NHEK were seeded at 30,000 cells/cm^2 into a 48-well microtiter flat bottom plate. After over night incubation growth medium 2 was replaced by BM, MGM, and MGM plus test compounds. The test compounds were dissolved in DMSO, diluted into MGM and added to the cells. 4 to 6 replicates/concentration were tested. […]

[3] = after 48 h, MGM control set 100%
[4] = after 72 h, MGM control set 100%
[5] = Homo sapiens, NHEK, after 72 h, MGM control set 100%, read-out: metabolic activity compared to the MGM control

SMILES | metabolic activity/cell number compared to the MGM control [1, 3] | metabolic activity/cell number compared to the MGM control [1, 4] | dose-depending increase of metabolic activity/cell number compared to the MGM control [1] | activity at 5 µM ([1]; Homo sapiens, NHEK, 5 µm test compound, after 48 h, MGM control set 100%, read-out: metabolic activity compared to the MGM control) [%] | activity at 100 µM [1, 5] [%] | proliferation (DNA amount) compared to the MGM control [2] [%] | activity at 100 µM ([1]; Homo sapiens, NHEK, after 48 h, MGM control set 100%, read-out: metabolic activity compared to the MGM control) [%]
Cc1ncc(C[n+]2csc(CCO)c2C)c(N)n1 [Thiamin, thiamine] | up to 138% | up to 163% |  |  |  |  | 
CC(C)(CO)[C@@H](O)C(=O)NCCC(=O)O [pantothenate, Ca^2+-pantothenate] |  |  | did not show a dose-depending increase | 111 | 110 |  | 
N[C@@H](CSSC[C@H](N)C(=O)O)C(=O)O [L-cystine] | up to 265% | up to 419% |  |  |  | 282 | 
Nc1nc2ncc(CNc3ccc(C(=O)N[C@@H](CCC(=O)O)C(=O)O)cc3)nc2c(=O)[nH]1 [folic acid] |  |  | did not demonstrate a dose-depending increase |  | 118 |  | 113

From patent publication EP2677026A1, “Keratinocyte minimal growth medium and use thereof in an in vitro method for identifying compounds capable of improving skin and hair physiology” (Merz Pharma GmbH & Co. KGaA, priority 2012, dated 2013)
